In brackets after ≈: the same amount, converted by molar mass.
Legend:
[1] = test system: Staphylococcus aureus; experiment: Antimicrobial activity against Staphylococcus aureus ATCC 25923 assessed as inhibition of bacterial growth incubated at 35 degC for 12 to 18 hrs; type: functional
[2] = test system: Escherichia coli; experiment: Antimicrobial activity against Escherichia coli ATCC 25922 assessed as inhibition of bacterial growth incubated at 35 degC for 12 to 18 hrs; type: functional
[3] = test system: Staphylococcus aureus; experiment: Antimicrobial activity against methicillin-resistant Staphylococcus aureus ATCC 33591 assessed as inhibition of bacterial growth incubated at 35 degC for 12 to 18 hrs; type: functional
[4] = Induction of hemolysis in sheep erythrocytes incubated at 37 degC for 60 mins; type: cell-based, Ovis aries, Erythrocyte
[5] = test system: Fusarium graminearum; experiment: Antimicrobial activity against Fusarium graminearum B4-5A using RPMI medium by microbroth dilution assay; type: functional
[6] = test system: Pseudomonas aeruginosa; experiment: Antimicrobial activity against Pseudomonas aeruginosa ATCC 27853 assessed as inhibition of bacterial growth incubated at 35 degC for 12 to 18 hrs; type: functional
[7] = test system: Enterococcus faecalis; experiment: Antimicrobial activity against vancomycin-resistant Enterococcus faecalis ATCC 1299 assessed as inhibition of bacterial growth incubated at 35 degC for 12 to 18 hrs; type: functional
[8] = test system: Fusarium graminearum; experiment: Antimicrobial activity against Fusarium graminearum B4-5A using potato dextrose broth as growth medium and diluent; type: functional
[9] = test system: Rhodotorula mucilaginosa; experiment: Antimicrobial activity against Rhodotorula piliminae using potato dextrose broth as growth medium and diluent; type: functional
[10] = test system: Botrytis cinerea; experiment: Antimicrobial activity against Botrytis cinerea using potato dextrose broth as growth medium and diluent; type: functional

Row | Compound | MIC [1] | MIC [2] | MIC [3] | IC90 at 1 h [4] | MIC [5] | MIC [6] | MIC [7] | MIC [8] | MIC [9] | MIC [10]
1 | CCCCCCc1cn(C[C@H]2O[C@@H](O[C@@H]3[C@@H](O)[C@H](N)C[C@H](N)[C@H]3O[C@H]3O[C@H](CN)[C@@H](O)[C@H](O)[C@H]3N)[C@H](O)[C@@H]2O[C@H]2O[C@@H](CN)[C@@H](O)[C@H](O)[C@H]2N)nn1 | 4 µg/mL (≈ 5.33 µM) | 32 µg/mL (≈ 42.7 µM) |  |  |  |  |  |  |  | 
2 | CCCCCCCCCCCCCCCC(=O)NC[C@H]1O[C@@H](O[C@@H]2[C@@H](O)[C@H](N)C[C@H](N)[C@H]2O[C@H]2O[C@H](CN)[C@@H](O)[C@H](O)[C@H]2N)[C@H](O)[C@@H]1O[C@H]1O[C@@H](CN)[C@@H](O)[C@H](O)[C@H]1N | 1 µg/mL (≈ 1.17 µM) | 4 µg/mL (≈ 4.69 µM) | 2 µg/mL (≈ 2.35 µM) | > 1000 µg/mL | 125 µg/mL (≈ 147 µM) | 4 µg/mL (≈ 4.69 µM) | 4 µg/mL (≈ 4.69 µM) |  |  | 
3 | CCCCCCCCCCCCCCCCCC(=O)NC[C@H]1O[C@@H](O[C@@H]2[C@@H](O)[C@H](N)C[C@H](N)[C@H]2O[C@H]2O[C@H](CN)[C@@H](O)[C@H](O)[C@H]2N)[C@H](O)[C@@H]1O[C@H]1O[C@@H](CN)[C@@H](O)[C@H](O)[C@H]1N | 2 µg/mL (≈ 2.27 µM) | 4 µg/mL (≈ 4.54 µM) | 2 µg/mL (≈ 2.27 µM) | > 1000 µg/mL | 125 µg/mL (≈ 142 µM) | 8 µg/mL (≈ 9.09 µM) | 8 µg/mL (≈ 9.09 µM) |  |  | 
4 | NC[C@@H]1O[C@H](O[C@H]2[C@@H](O)[C@H](O[C@@H]3[C@@H](O)[C@H](N)C[C@H](N)[C@H]3O[C@H]3O[C@H](CN)[C@@H](O)[C@H](O)[C@H]3N)O[C@@H]2CNC(=O)c2cc(-c3ccccc3)nc3ccccc23)[C@H](N)[C@@H](O)[C@@H]1O | 4 µg/mL (≈ 4.73 µM) | 8 µg/mL (≈ 9.47 µM) |  |  |  |  |  |  |  | 
5 | CCCCCCCCCCCC(=O)NC[C@H]1O[C@@H](O[C@@H]2[C@@H](O)[C@H](N)C[C@H](N)[C@H]2O[C@H]2O[C@H](CN)[C@@H](O)[C@H](O)[C@H]2N)[C@H](O)[C@@H]1O[C@H]1O[C@@H](CN)[C@@H](O)[C@H](O)[C@H]1N | 8 µg/mL (≈ 10.1 µM) | 16 µg/mL (≈ 20.1 µM) | 16 µg/mL (≈ 20.1 µM) |  |  | 16 µg/mL (≈ 20.1 µM) | 64 µg/mL (≈ 80.4 µM) |  |  | 
6 | NCC[C@H](O)C(=O)N[C@@H]1C[C@H](N)[C@@H](O[C@H]2O[C@H](CN)[C@@H](O)[C@H](O)[C@H]2O)[C@H](O)[C@H]1O[C@H]1O[C@H](CO)[C@@H](O)[C@H](N)[C@H]1O [AMIKACIN] | 1 µg/mL (≈ 1.71 µM) | 1 µg/mL (≈ 1.71 µM) | 8 µg/mL (≈ 13.7 µM) |  |  | 0.5 µg/mL (≈ 0.854 µM) | ≥ 250 µg/mL |  |  | 
7 | NC[C@H]1O[C@H](O[C@H]2[C@H](O)[C@@H](O[C@H]3O[C@H](CO)[C@@H](O)[C@H](N)[C@H]3O)[C@H](N)C[C@@H]2N)[C@H](N)[C@@H](O)[C@@H]1O [BEKANAMYCIN] |  |  |  |  |  |  |  | > 250 µg/mL |  | 
8 | NC[C@@H]1O[C@H](O[C@H]2[C@@H](O)[C@H](O[C@@H]3[C@@H](O)[C@H](N)C[C@H](N)[C@H]3O[C@H]3O[C@H](CN)[C@@H](O)[C@H](O)[C@H]3N)O[C@@H]2CO)[C@H](N)[C@@H](O)[C@@H]1O [FRAMYCETIN] | 1 µg/mL (≈ 1.63 µM) | 4 µg/mL (≈ 6.51 µM) | 125 µg/mL (≈ 203 µM) |  | 62.5 µg/mL (≈ 102 µM) | 64 µg/mL (≈ 104 µM) | ≥ 250 µg/mL |  |  | 
9 | NC[C@@H]1O[C@@H](O[C@H]2[C@H](O)[C@@H](O[C@H]3O[C@H](CO)[C@@H](O)[C@H](N)[C@H]3O)[C@H](N)C[C@@H]2N)[C@@H](O)[C@H](O)[C@H]1O [KANAMYCIN A] |  |  |  |  | > 500 µg/mL |  |  |  |  | 
10 | CC1(C)CCC(Cc2ccc(Cl)cc2)C1(O)Cn1cncn1 (configuration not stated) [METCONAZOLE] |  |  |  |  |  |  |  | 3.9 µg/mL (≈ 12.2 µM) | 15.6 µg/mL (≈ 48.8 µM) | 7.8 µg/mL (≈ 24.4 µM)
11 | CN[C@H](CC(C)C)C(=O)N[C@H]1C(=O)N[C@@H](CC(N)=O)C(=O)N[C@H]2C(=O)N[C@H]3C(=O)N[C@H](C(=O)N[C@H](C(=O)O)c4cc(O)cc(O)c4-c4cc3ccc4O)[C@H](O)c3ccc(c(Cl)c3)Oc3cc2cc(c3O[C@@H]2O[C@H](CO)[C@@H](O)[C@H](O)[C@H]2O[C@H]2C[C@](C)(N)[C@H](O)[C@H](C)O2)Oc2ccc(cc2Cl)[C@H]1O [VANCOMYCIN] |  | 125 µg/mL (≈ 86.3 µM) |  |  |  | ≥ 250 µg/mL | 250 µg/mL (≈ 173 µM) |  |  | 

Reference: ChEMBL document CHEMBL3588813, “Antifungal Amphiphilic Aminoglycosides” (Medchemcomm, 2014)
